According to the kinase profiling compilation of Christmann-Franck et al. (2016):

Tests used:
Assay in all cases: KINOMEscan competition binding
Conditions in all cases: compound 10.0 µM
[1] = target: CDC42BPG (human) (UniProt Q6DT37)
[2] = target: EPHB2 (human) (UniProt P29323)
[3] = target: NTRK2 (human) (UniProt Q16620)
[4] = target: STK11 (human) (UniProt Q15831)
[5] = target: PRKD2 (human) (UniProt Q9BZL6)
[6] = target: RPS6KA2 KD1 (human) (UniProt Q15349)
[7] = target: IKBKB (human) (UniProt O14920)
[8] = target: MKNK1 (human) (UniProt Q9BUB5)
[9] = target: WEE1 (human) (UniProt P30291)
[10] = target: MAPKAPK2 (human) (UniProt P49137)
[11] = target: CHUK (human) (UniProt O15111)
[12] = target: RIOK3 (human) (UniProt O14730)
[13] = target: BRSK1 (human) (UniProt Q8TDC3)
[14] = target: ACVRL1 (human) (UniProt P37023)
[15] = target: SRPK1 (human) (UniProt Q96SB4)
[16] = target: STK33 (human) (UniProt Q9BYT3)
[17] = target: CDK18 (human) (UniProt Q07002)
[18] = target: SGK110 (human) (UniProt P0C264)
[19] = target: PRKACA (human) (UniProt P17612)
[20] = target: CDK15 (human) (UniProt Q96Q40)
[21] = target: FYN (human) (UniProt P06241)
[22] = target: STK17A (human) (UniProt Q9UEE5)
[23] = target: RPS6KA1 KD2 (human) (UniProt Q15418)
[24] = target: MYLK2 (human) (UniProt Q9H1R3)
[25] = target: MAP3K10 (human) (UniProt Q02779)
[26] = target: TAOK3 (human) (UniProt Q9H2K8)
[27] = target: CSNK1G1 (human) (UniProt Q9HCP0)
[28] = target: TTK (human) (UniProt P33981)
[29] = target: MAPK9 (human) (UniProt P45984)
[30] = target: MAP3K11 (human) (UniProt Q16584)
[31] = target: CAMK2A (human) (UniProt Q9UQM7)
[32] = target: TYK2 JH1 catalytic (human) (UniProt P29597)
[33] = target: MAPK4 (human) (UniProt P31152)
[34] = target: CDK7 (human) (UniProt P50613)
[35] = target: DCLK2 (human) (UniProt Q8N568)
[36] = target: PLK1 (human) (UniProt P53350)
[37] = target: TNK2 (human) (UniProt Q07912)
[38] = target: JAK1 JH1 catalytic (human) (UniProt P23458)
[39] = target: MAP2K2 (human) (UniProt P36507)
[40] = target: PDGFRB (human) (UniProt P09619)

Sequence of MAP2K2 (human) (P36507 whole entry, looked up): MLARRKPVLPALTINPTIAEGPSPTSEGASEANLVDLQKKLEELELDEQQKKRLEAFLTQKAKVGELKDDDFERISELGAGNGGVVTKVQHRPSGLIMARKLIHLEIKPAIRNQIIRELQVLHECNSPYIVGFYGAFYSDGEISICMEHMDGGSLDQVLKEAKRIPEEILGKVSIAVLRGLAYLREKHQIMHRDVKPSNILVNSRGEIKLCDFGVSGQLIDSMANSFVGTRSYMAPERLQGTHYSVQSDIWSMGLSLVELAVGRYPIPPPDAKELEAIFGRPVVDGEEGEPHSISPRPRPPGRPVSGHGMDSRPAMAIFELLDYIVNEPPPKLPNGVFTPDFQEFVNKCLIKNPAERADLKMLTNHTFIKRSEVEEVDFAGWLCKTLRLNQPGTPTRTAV
Sequence of EPHB2 (human) (P29323 whole entry, looked up): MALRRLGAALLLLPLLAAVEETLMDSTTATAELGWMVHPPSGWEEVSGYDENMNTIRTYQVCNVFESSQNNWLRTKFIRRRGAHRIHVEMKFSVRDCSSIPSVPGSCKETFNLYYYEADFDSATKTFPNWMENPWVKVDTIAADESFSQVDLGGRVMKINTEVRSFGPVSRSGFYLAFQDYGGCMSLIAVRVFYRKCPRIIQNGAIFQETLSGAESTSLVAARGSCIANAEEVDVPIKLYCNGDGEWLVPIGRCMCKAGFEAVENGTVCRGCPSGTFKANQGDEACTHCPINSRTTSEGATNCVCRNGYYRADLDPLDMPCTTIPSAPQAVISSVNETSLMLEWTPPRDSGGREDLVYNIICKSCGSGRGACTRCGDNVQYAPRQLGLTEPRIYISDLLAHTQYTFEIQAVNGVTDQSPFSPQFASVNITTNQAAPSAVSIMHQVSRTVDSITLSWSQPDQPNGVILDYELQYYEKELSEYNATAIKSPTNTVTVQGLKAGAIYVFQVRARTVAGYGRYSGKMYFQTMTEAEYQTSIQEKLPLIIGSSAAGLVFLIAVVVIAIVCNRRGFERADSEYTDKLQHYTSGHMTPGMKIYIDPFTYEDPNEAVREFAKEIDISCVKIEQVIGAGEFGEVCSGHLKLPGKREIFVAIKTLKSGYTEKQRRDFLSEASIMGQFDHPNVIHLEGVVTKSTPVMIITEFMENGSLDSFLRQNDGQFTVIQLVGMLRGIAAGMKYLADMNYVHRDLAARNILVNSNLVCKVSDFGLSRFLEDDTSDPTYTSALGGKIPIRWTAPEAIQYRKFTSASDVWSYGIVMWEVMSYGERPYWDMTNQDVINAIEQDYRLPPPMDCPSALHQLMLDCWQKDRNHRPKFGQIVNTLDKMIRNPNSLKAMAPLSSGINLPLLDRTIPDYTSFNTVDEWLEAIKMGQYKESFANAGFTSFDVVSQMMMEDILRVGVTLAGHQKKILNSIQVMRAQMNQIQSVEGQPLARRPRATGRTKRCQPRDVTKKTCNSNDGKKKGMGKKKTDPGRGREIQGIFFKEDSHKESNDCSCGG
Sequence of MAPK9 (human) (P45984 whole entry, looked up): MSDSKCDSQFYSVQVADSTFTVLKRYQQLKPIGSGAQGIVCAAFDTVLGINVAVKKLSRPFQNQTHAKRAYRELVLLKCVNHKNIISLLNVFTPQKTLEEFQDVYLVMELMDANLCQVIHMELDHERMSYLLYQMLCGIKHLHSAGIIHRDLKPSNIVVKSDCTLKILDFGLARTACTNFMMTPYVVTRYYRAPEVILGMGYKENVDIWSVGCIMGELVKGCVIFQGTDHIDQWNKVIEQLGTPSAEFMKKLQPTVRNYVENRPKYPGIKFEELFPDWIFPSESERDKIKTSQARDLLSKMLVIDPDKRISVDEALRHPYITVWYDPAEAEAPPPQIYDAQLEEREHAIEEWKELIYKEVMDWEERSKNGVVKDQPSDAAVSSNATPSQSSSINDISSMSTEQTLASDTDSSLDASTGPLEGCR
Sequence of CDK18 (human) (Q07002 whole entry, looked up): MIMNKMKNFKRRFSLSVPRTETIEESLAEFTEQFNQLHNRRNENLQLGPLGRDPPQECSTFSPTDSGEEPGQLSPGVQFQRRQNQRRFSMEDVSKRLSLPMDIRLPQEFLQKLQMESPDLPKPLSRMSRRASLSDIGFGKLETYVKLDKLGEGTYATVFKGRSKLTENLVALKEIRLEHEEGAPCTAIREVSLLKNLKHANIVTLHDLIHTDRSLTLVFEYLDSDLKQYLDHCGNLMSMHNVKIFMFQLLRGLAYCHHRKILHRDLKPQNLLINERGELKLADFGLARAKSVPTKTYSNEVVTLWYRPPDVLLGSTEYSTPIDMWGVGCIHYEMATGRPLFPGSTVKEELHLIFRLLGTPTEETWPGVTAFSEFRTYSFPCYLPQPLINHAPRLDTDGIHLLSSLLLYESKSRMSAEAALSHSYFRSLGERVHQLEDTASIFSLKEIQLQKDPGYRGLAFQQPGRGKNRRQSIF
Sequence of CSNK1G1 (human) (Q9HCP0 whole entry, looked up): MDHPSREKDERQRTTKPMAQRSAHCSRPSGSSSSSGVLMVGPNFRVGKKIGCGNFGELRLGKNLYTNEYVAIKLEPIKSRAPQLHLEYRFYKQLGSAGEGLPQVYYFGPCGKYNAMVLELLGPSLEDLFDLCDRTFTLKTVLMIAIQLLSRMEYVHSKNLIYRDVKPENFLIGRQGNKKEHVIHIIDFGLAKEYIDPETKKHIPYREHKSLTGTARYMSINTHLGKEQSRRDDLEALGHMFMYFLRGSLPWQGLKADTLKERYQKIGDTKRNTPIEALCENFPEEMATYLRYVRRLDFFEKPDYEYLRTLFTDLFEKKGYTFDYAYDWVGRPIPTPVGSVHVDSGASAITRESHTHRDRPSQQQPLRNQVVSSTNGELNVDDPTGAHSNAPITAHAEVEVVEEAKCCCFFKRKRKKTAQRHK
Sequence of PRKD2 (human) (Q9BZL6 whole entry, looked up): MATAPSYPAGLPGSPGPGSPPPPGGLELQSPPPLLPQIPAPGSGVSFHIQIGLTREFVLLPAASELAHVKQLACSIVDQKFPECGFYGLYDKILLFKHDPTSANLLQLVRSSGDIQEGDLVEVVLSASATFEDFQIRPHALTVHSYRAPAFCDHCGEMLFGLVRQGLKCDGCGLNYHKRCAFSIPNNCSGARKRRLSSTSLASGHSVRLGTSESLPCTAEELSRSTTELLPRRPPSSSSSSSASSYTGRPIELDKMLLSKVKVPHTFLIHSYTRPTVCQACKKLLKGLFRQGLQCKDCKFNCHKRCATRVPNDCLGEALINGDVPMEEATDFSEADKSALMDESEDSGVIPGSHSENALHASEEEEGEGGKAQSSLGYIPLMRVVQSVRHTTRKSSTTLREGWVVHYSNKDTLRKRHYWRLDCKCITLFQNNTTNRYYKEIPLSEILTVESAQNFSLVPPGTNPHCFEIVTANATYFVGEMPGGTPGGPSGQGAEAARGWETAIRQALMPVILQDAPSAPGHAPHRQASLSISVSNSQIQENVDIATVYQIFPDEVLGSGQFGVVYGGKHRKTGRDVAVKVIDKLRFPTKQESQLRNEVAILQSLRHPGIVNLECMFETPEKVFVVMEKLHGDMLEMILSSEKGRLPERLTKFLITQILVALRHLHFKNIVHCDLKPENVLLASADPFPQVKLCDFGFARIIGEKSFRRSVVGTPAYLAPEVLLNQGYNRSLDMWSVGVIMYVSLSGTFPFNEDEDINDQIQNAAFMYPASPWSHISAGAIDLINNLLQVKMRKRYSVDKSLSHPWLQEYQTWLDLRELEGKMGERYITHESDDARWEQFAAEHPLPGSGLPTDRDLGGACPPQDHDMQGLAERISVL
Sequence of CAMK2A (human) (Q9UQM7 whole entry, looked up): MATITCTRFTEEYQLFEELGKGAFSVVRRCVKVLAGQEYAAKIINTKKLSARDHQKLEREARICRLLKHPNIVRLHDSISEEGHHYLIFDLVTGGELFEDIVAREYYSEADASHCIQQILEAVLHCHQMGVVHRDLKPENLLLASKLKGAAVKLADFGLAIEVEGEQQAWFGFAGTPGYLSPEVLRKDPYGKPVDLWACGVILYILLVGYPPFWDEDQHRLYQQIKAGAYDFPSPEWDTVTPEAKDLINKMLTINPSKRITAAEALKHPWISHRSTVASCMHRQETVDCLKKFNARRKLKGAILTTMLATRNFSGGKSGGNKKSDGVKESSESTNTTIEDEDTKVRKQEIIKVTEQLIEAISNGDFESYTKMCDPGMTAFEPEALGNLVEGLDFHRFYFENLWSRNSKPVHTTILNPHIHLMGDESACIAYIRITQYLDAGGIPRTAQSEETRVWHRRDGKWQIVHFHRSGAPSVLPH
Sequence of FYN (human) (P06241 whole entry, looked up): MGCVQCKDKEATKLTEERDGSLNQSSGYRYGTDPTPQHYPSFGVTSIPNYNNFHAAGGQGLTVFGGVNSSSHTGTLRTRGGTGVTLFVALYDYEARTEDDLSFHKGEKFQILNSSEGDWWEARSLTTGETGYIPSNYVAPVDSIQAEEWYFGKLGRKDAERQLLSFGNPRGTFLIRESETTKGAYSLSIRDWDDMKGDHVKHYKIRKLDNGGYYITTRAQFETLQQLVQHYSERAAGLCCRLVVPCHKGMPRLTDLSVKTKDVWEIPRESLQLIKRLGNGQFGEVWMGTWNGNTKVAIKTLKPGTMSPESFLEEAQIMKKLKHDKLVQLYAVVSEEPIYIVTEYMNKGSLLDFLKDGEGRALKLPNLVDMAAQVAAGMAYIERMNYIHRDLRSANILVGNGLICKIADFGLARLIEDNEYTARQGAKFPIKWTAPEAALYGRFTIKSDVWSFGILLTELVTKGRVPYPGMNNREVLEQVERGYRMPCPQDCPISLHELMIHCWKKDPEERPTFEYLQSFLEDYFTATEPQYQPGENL
Sequence of CDK7 (human) (P50613 whole entry, looked up): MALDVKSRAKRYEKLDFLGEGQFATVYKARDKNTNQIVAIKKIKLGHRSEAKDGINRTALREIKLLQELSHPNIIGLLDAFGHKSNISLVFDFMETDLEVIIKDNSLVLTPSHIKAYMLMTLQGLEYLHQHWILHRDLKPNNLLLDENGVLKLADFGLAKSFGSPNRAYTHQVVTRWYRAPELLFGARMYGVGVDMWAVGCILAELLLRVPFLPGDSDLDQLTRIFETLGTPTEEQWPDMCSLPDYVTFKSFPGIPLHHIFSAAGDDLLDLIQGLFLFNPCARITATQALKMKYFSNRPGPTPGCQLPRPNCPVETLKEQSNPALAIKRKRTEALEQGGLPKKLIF

SMILES	kinase still bound, per cent of control [1] [%]	kinase still bound, per cent of control [2] [%]	kinase still bound, per cent of control [3] [%]	kinase still bound, per cent of control [4] [%]	kinase still bound, per cent of control [5] [%]	kinase still bound, per cent of control [6] [%]	kinase still bound, per cent of control [7] [%]	kinase still bound, per cent of control [8] [%]	kinase still bound, per cent of control [9] [%]	kinase still bound, per cent of control [10] [%]	kinase still bound, per cent of control [12] [%]	kinase still bound, per cent of control [13] [%]	kinase still bound, per cent of control [14] [%]	kinase still bound, per cent of control [15] [%]	kinase still bound, per cent of control [16] [%]	kinase still bound, per cent of control [17] [%]	kinase still bound, per cent of control [18] [%]	kinase still bound, per cent of control [19] [%]	kinase still bound, per cent of control [20] [%]	kinase still bound, per cent of control [21] [%]	also measured
Cn1c(=O)n(-c2ccc(C(C)(C)C#N)cc2)c2c3cc(-c4cnc5ccccc5c4)ccc3ncc21	100	100	100	100	100	100	100	100	100	100	100	100	100	100	100	100	100	100	100	100	kinase still bound, per cent of control [11]: 100%; kinase still bound, per cent of control [22]: 100%; kinase still bound, per cent of control [23]: 100%; kinase still bound, per cent of control [24]: 100%; kinase still bound, per cent of control [25]: 100%; kinase still bound, per cent of control [26]: 100%; kinase still bound, per cent of control [27]: 100%; kinase still bound, per cent of control [28]: 100%; kinase still bound, per cent of control [29]: 100%; kinase still bound, per cent of control [30]: 100%; kinase still bound, per cent of control [31]: 100%; kinase still bound, per cent of control [32]: 100%; kinase still bound, per cent of control [33]: 100%; kinase still bound, per cent of control [34]: 100%; kinase still bound, per cent of control [35]: 100%; kinase still bound, per cent of control [36]: 100%; kinase still bound, per cent of control [37]: 100%; kinase still bound, per cent of control [38]: 16%; kinase still bound, per cent of control [39]: 100%
N#Cc1c(NC(=O)c2cccc3ccccc23)sc2c1CCCC2	81	75	100	81	88	93	72	100	64	93	100	100	100	100	86	95	91	78	69	63	kinase still bound, per cent of control [22]: 100%; kinase still bound, per cent of control [23]: 78%; kinase still bound, per cent of control [24]: 100%; kinase still bound, per cent of control [25]: 100%; kinase still bound, per cent of control [26]: 87%; kinase still bound, per cent of control [27]: 50%; kinase still bound, per cent of control [28]: 91%; kinase still bound, per cent of control [29]: 4.8%; kinase still bound, per cent of control [30]: 98%; kinase still bound, per cent of control [31]: 92%; kinase still bound, per cent of control [32]: 100%; kinase still bound, per cent of control [33]: 90%; kinase still bound, per cent of control [34]: 82%; kinase still bound, per cent of control [40]: 44%; kinase still bound, per cent of control [35]: 100%; kinase still bound, per cent of control [36]: 81%; kinase still bound, per cent of control [37]: 77%; kinase still bound, per cent of control [38]: 78%; kinase still bound, per cent of control [39]: 100%
